Measured values: ChEMBL document CHEMBL3352545, “Two new unusual monoterpene acid glycosides from Acacia cyclops with potential cytotoxic activity” (2014)

Legend:
[1] = tested on: OVCAR; experiment: Growth inhibition of human OVCAR cells at 50 ug/mL by MTT assay; type: functional; settings: read-out: GI
[2] = tested on: MCF7; experiment: Growth inhibition of human MCF7 cells at 50 ug/mL by MTT assay; type: functional; settings: read-out: GI

| SMILES | inhibition of growth at 50 µg/mL [1] | inhibition of growth at 50 µg/mL [2] |
| --- | --- | --- |
| C=CC(C)(CC/C=C(\C)C(=O)O)O[C@@H]1O[C@@H](C)[C@H](OC(C)(C=C)CC/C=C(\C)C(=O)O)[C@@H](O)[C@H]1O (some centres undefined) | 66.5% | 68.2% |
| C=CC(C)(CC/C=C(\C)C(=O)O)O[C@@H]1O[C@H](CO)[C@@H](OC(C)(C=C)CC/C=C(/C)C(=O)O)[C@H](O)[C@H]1O (some centres undefined) | 77.7% | 98.9% |
